From patent publication US8729113B2 (Hoffmann-La Roche Inc., priority 2008, dated 2014)

Assays:
[1] = target: T1, TAAR1 (Mus musculus (Mouse), UniProt Q923Y8); assay: Radioligand binding assay on TAAR1: Kd of the radioligand; conditions: binding assay at 4° C.; species of TAAR1 not stated; read-out: calculated Kd value of the radioligand
Protocol: Cells at confluence were rinsed with ice-cold phosphate buffered saline without Ca^2+ and Mg^2+ containing 10 mM EDTA and pelleted by centrifugation at 1000 rpm for 5 min at 4° C. The pellet was then washed twice with ice-cold phosphate buffered saline and cell pellet was frozen immediately by immersion in liquid nitrogen and stored until use at −80° C. Cell pellet was then suspended in 20 ml HEPES-NaOH (20 mM), pH 7.4 containing 10 mM EDTA, and homogenized with a Polytron (PT 3000, Kinematica) at 10,000 rpm for 10 s. The homogenate was centrifuged at 48,000×g for 30 min at 4° C. and the pellet resuspended in 20 ml HEPES-NaOH (20 mM), pH 7.4 containing 0.1 mM EDTA (buffer A), and homogenized with a Polytron at 10,000 rpm for 10 s. The homogenate was then centrifuged at 48,000×g for 30 min at 4° C. and the pellet resuspended in 20 ml buffer A, and homogenized with a Polytron at 10,000 rpm for 10 s. Protein concentration was determined by the method of Pierce (Rockford, Ill.). […]
Binding assay was performed at 4° C. in a final volume of 1 ml, and with an incubation time of 30 min. […] The tubes and filters were then washed 3 times with 1 ml aliquots of cold buffer B. Filters were not dried and soaked in Ultima gold (45 μl/well, Packard Instrument Company) and bound radioactivity was counted by a TopCount Microplate Scintillation Counter (Packard Instrument Company).

[2] = target: T1, TAAR1; assay: Radioligand binding assay on TAAR1 (membranes of stably transfected HEK293 cells); conditions: competition with [3H]-rac-2-(1,2,3,4-tetrahydro-1-naphthyl)-2-imidazoline, 4° C., 30 min
Protocol: For the construction of expression plasmids the coding sequences of human, rat and mouse TAAR 1 were amplified from genomic DNA essentially as described by Lindemann et al.. The Expand High Fidelity PCR System (Roche Diagnostics) was used with 1.5 mM Mg^2+ and purified PCR products were cloned into pCR2.1—TOPO cloning vector (Invitrogen) following the instructions of the manufacturer. PCR products were subcloned into the pIRESneo2 vector (BD Clontech, Palo Alto, Calif.), and expression vectors were sequence verified before introduction in cell lines.
HEK293 cells (ATCC # CRL-1573) were cultured essentially as described Lindemann et al. (2005). For the generation of stably transfected cell lines HEK293 cells were transfected with the pIRESneo2 expression plasmids containing the TAAR coding sequences (described above) with Lipofectamine 2000 (Invitrogen) according to the instructions of the manufacturer, and 24 hrs post transfection the culture medium was supplemented with 1 mg/ml G418 (Sigma, Buchs, Switzerland). After a culture period of about 10 d clones were isolated, expanded and tested for responsiveness to trace amines (all compounds purchased from Sigma) with the cAMP Biotrak Enzyme immunoassay (EIA) System (Amersham) following the non-acetylation EIA procedure provided by the manufacturer. […] Membrane Preparation and Radioligand Binding
Cells at confluence were rinsed with ice-cold phosphate buffered saline without Ca^2+ and Mg^2+ containing 10 mM EDTA and pelleted by centrifugation at 1000 rpm for 5 min at 4° C. The pellet was then washed twice with ice-cold phosphate buffered saline and cell pellet was frozen immediately by immersion in liquid nitrogen and stored until use at −80° C. Cell pellet was then suspended in 20 ml HEPES-NaOH (20 mM), pH 7.4 containing 10 mM EDTA, and homogenized with a Polytron (PT 3000, Kinematica) at 10,000 rpm for 10 s. The homogenate was centrifuged at 48,000×g for 30 min at 4° C. and the pellet resuspended in 20 ml HEPES-NaOH (20 mM), pH 7.4 containing 0.1 mM EDTA (buffer A), and homogenized with a Polytron at 10,000 rpm for 10 s. The homogenate was then centrifuged at 48,000×g for 30 min at 4° C. and the pellet resuspended in 20 ml buffer A, and homogenized with a Polytron at 10,000 rpm for 10 s. Protein concentration was determined by the method of Pierce (Rockford, Ill.). The homogenate was then centrifuged at 48,000×g for 10 min at 4° C., resuspended in HEPES-NaOH (20 mM), pH 7.0 including MgCl2 (10 mM) and […] homogenized with a Polytron at 10,000 rpm for 10 s.
Binding assay was performed at 4° C. in a final volume of 1 ml, and with an incubation time of 30 min. The radioligand [^3H]-rac-2-(1,2,3,4-tetrahydro-1-naphthyl)-2-imidazoline was used at a concentration equal to the calculated Kd value of 60 nM to give a bound at around 0.1% of the total added radioligand concentration, and a specific binding which represented approximately 70-80% of the total binding. Non-specific binding was defined as the amount of [^3H]-rac-2-(1,2,3,4-tetrahydro-1-naphthyl)-2-imidazoline bound in the presence of the appropriate unlabelled ligand (10 μM). Competing ligands were tested in a wide range of concentrations […]. […] Each experiment was performed in duplicate. All incubations were terminated by rapid filtration through UniFilter-96 plates (Packard Instrument Company) and glass filter GF/C, pre-soaked for at least 2 h in polyethylenimine 0.3%, and using a Filtermate 96 Cell Harvester (Packard Instrument Company). The tubes and filters were then washed 3 times with 1 ml aliquots of cold buffer B. Filters were not dried and soaked in Ultima gold (45 μl/well, Packard Instrument Company) and bound radioactivity was counted by a TopCount Microplate Scintillation Counter (Packard Instrument Company).

T1 sequence (Q923Y8 whole entry): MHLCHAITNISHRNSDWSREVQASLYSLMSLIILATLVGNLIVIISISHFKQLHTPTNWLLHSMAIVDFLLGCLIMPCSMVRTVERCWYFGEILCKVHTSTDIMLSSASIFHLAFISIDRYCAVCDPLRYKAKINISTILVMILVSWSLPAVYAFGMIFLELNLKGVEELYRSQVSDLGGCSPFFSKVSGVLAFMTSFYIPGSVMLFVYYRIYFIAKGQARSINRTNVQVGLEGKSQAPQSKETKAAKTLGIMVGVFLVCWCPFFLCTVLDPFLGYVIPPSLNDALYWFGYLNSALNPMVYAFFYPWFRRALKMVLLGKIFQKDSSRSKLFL

| SMILES | Kd [1] [nM] | Ki [2] [µM] |
| --- | --- | --- |
| c1ccc2c(c1)CCCC2C1=NCCN1 (racemic) [[^3H]-rac-2-(1,2,3,4-tetrahydro-1-naphthyl)-2-imidazoline] | 60 |  |
| CC[C@@H](C[C@H]1COC(N)=N1)Oc1ccc(Cl)cc1F [Example 123, (S)-4-[(S)-2-(4-Chloro-2-fluoro-phenoxy)-butyl]-4,5-dihydro-oxazol-2-ylamine] |  | 0.0065 |
| CCC(CC[C@H]1COC(N)=N1)c1cc(F)cc(F)c1 (stereo partly drawn) [Example 124, (4S)-4-[3-(3,5-Difluoro-phenyl)-pentyl]-4,5-dihydro-oxazol-2-ylamine] |  | 0.001 |
| COC(=O)c1cccc(OCC[C@H]2COC(N)=N2)c1 [Example 127, 3-[2-((S)-2-Amino-4,5-dihydro-oxazol-4-yl)-ethoxy]-benzoic acid methyl ester] |  | 0.008 |
| NC1=N[C@@H](CCOc2cc(F)cc(F)c2)CO1 [Example 130, (S)-4-[2-(3,5-Difluoro-phenoxy)-ethyl]-4,5-dihydro-oxazol-2-ylamine] |  | 0.0007 |
| NC1=N[C@@H](CCOc2cccc(C(=O)OCc3ccccc3)c2)CO1 [Example 136, 3-[2-((S)-2-Amino-4,5-dihydro-oxazol-4-yl)-ethoxy]-benzoic acid benzyl ester] |  | 0.0004 |
| CC[C@@H](C[C@H]1COC(N)=N1)Oc1cccc(OCc2ccccc2)c1 [Example 140, (S)-4-[(S)-2-(3-Benzyloxy-phenoxy)-butyl]-4,5-dihydro-oxazol-2-ylamine] |  | 0.0009 |
| CC[C@@H](C[C@H]1COC(N)=N1)Oc1cccc(O)c1 [Example 141, 3-[(S)-1-((8)-2-Amino-4,5-dihydro-oxazol-4-ylmethyl)-propoxy]-phenol] |  | 0.0037 |
| NC1=N[C@@H](CCC2(c3cc(F)cc(F)c3)CC2)CO1 [Example 142, (S)-4-{2-[1-(3,5-Difluoro-phenyl)-cyclopropyl]-ethyl}-4,5-dihydro-oxazol-2-ylamine] |  | 0.0013 |
| NC1=N[C@@H](CCC2(c3cc(F)cc(Cl)c3)CC2)CO1 [Example 143, (S)-4-{2-[1-(3-Chloro-5-fluoro-phenyl)-cyclopropyl]-ethyl}-4,5-dihydro-oxazol-2-ylamine] |  | 0.0009 |
| NC1=N[C@@H](CCC2(c3ccc(Br)cc3)CC2)CO1 [Example 144, (S)-4-{2-[1-(4-Bromo-phenyl)-cyclopropyl]-ethyl}-4,5-dihydro-oxazol-2-ylamine] |  | 0.0005 |
| NC1=N[C@@H](CCSc2ccc(F)cc2)CO1 [Example 150, (S)-4-[2-(4-Fluoro-phenylsulfanyl)-ethyl]-4,5-dihydro-oxazol-2-ylamine] |  | 0.0007 |
| CC[C@@H](C[C@H]1COC(N)=N1)Oc1cc(F)c(F)cc1F [Example 152, (S)-4-[(S)-2-(2,4,5-Trifluoro-phenoxy)-butyl]-4,5-dihydro-oxazol-2-ylamine] |  | 0.0029 |
| CC[C@@H](C[C@H]1COC(N)=N1)Oc1ccc2ccccc2c1 [Example 153, (S)-4-[(S)-2-(Naphthalen-2-yloxy)-butyl]-4,5-dihydro-oxazol-2-ylamine] |  | 0.0011 |
| C[C@H](OC[C@H]1COC(N)=N1)c1ccc(F)cc1 [Example 155, (S)-4-[(S)-1-(4-Fluoro-phenyl)-ethoxymethyl]-4,5-dihydro-oxazol-2-ylamine] |  | 0.0032 |
| CC[C@H](OC[C@H]1COC(N)=N1)c1ccccc1 [Example 156, (S)-4-((S)-1-Phenyl-propoxymethyl)-4,5-dihydro-oxazol-2-ylamine] |  | 0.0073 |
| CC[C@@H](C[C@H]1COC(N)=N1)Oc1ccc(Cl)cc1Cl [Example 158, (S)-4-[(S)-2-(2,4-Dichloro-phenoxy)-butyl]-4,5-dihydro-oxazol-2-ylamine] |  | 0.0011 |
| CC[C@@H](C[C@H]1COC(N)=N1)Oc1ccc2ncccc2c1 [Example 159, (S)-4-[(S)-2-(Quinolin-6-yloxy)-butyl]-4,5-dihydro-oxazol-2-ylamine] |  | 0.0063 |
| NC1=N[C@@H](CCC(F)(F)c2ccc(F)cc2)CO1 [Example 162, (S)-4-[3,3-Difluoro-3-(4-fluoro-phenyl)-propyl]-4,5-dihydro-oxazol-2-ylamine] |  | 0.0022 |
| NC1=N[C@@H](CCCCc2ccccc2)CO1 [Example 172, (S)-4-(4-Phenyl-butyl)-4,5-dihydro-oxazol-2-ylamine] |  | 0.0015 |
